The target of the test is T1, ZAP-70 (Homo sapiens, UniProt P43403).
T1 sequence (P43403 1-619): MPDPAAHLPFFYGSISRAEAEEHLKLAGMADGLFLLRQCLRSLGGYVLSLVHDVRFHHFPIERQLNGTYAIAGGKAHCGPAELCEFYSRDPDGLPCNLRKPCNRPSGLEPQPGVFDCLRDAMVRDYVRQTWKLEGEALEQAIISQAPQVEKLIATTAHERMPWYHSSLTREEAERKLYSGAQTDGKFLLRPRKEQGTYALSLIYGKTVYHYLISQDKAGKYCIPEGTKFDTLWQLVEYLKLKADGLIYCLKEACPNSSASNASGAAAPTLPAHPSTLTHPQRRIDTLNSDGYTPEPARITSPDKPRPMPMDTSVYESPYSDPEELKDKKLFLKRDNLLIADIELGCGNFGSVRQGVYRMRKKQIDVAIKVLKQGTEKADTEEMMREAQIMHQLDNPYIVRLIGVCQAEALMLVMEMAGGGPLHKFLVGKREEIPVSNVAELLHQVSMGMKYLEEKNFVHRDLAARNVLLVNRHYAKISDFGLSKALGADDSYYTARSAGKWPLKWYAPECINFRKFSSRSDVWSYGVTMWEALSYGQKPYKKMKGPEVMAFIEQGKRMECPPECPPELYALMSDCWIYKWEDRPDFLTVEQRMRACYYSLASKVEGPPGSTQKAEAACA
As to the kind of experiment: DELFIA assay (ZAP-70 kinase, phosphorylation of biotinylated poly(glu,tyr)). The class given is biochemical. Particulars: ZAP-70 DELFIA, class symbols; read-out: Activity (IC50 in vitro). As to the method: Before initiation of kinase reactions, compounds were pre-incubated with ZAP-70. Pre-incubation reactions contained 62.5 mM Mops pH 7.0, 12.5 mM MgCl2, 12.5% glycerol, 3.1 nM ZAP-70, 62.5 nM biotinylated poly(glu,Tyr), 0.1 mg/ml BSA, 6.25% DMSO and […] compound in a total volume of […]. After a 10 minute room temperature incubation, 10 ml of 5 mM ATP was added to start the reaction. Reactions were incubated at room temperature for 30 minutes then terminated by addition of 5 ml 500 mM EDTA. The amount of phosphate transferred to biotinylated poly(glu,tyr) was measured using the Dissociation Enhanced Lanthanide Fluorescence Immuno-assay (DELFIA) from Perkin Elmer according to manufacturers protocol. Briefly, biotinylated […] was captured on streptavidin coated plates, washed twice, then incubated with Europium labeled-anti-phosphotyrosine antibody. Free antibody was removed with six washes, Europium was dissociated from the antibody, and Europium fluorescence was measured at using an excitation wavelength of 340 nm and an emission wavelength of 615 nm.

The structures appear in SMILES notation.

By IC50 is commonly meant the midpoint of a concentration-inhibition curve. `O=C(c1cc(Cl)nc2ccc(-c3ccc4c(c3)OCO4)cc12)N1CCC[C@H]1CN1CCCC1` [Compound 1]: the IC50 fell in the range of 1000 to 10000 nM.

Turning to `O=C(c1cc(NC2CC2)nc2ccc(-c3ccc4c(c3)OCO4)cc12)N1CCC[C@H]1CN1CCCC1` [Compound 2], the IC50 lay in the range of 1000 to 10000 nM.

`O=C(c1cc(Cl)nc2ccccc12)N1CCC[C@H]1CN1CCCC1` [Compound 3]: the IC50 is over 10000 nM.

As to `O=C(c1cc(NCc2ccccc2)nc2ccc(-c3ccc4c(c3)OCO4)cc12)N1CCC[C@H]1CN1CCCC1` [Compound 4], the half-maximal inhibitory concentration (IC50) is under 1000 nM.

For `O=C(c1cc(N2CCOCC2)nc2ccc(-c3ccc4c(c3)OCO4)cc12)N1CCC[C@H]1CN1CCOCC1` [Compound 5], the IC50 lay in the range of 1000 to 10000 nM.

With `COc1cc(C(=O)N2CCC[C@H]2CN2CCCC2)cc(-c2ccc3c(c2)OCO3)n1` [Compound 6], the IC50 was over 10000 nM.

As to `COc1cc(C(=O)N2CCC[C@H]2CN2CCCC2)cc(NCc2ccccc2)n1` [Compound 7], the IC50 was over 10000 nM.

For `O=C(c1cc(Nc2ccc3c(c2)OCO3)nc2ccccc12)N1CCC[C@H]1CN1CCCC1` [Compound 8], the half-inhibitory concentration (IC50) is over 10000 nM.

As to `O=C(c1cc(NC2CC2)nc2ccccc12)N1CCC[C@H]1CN1CCCC1` [Compound 9], the IC50 was over 10000 nM.

As to `O=C(c1cc(Nc2ccc3cn[nH]c3c2)nc2ccccc12)N1CCC[C@H]1CN1CCCC1` [Compound 10], the IC50 was over 10000 nM.

`Nc1cc(C(=O)N2CCC[C@H]2CN2CCCC2)c2cc(-c3ccc4c(c3)OCO4)ccc2n1` [Compound 11]: the IC50 is 1000 to 10000 nM.

Regarding `CN(Cc1ccccc1)c1cc(C(=O)N2CCC[C@H]2CN2CCCC2)c2cc(-c3ccc4c(c3)OCO4)ccc2n1` [Compound 12], the IC50 was under 1000 nM.

For the molecule `O=C(c1cc(Nc2ccccc2)nc2ccc(-c3ccc4c(c3)OCO4)cc12)N1CCC[C@H]1CN1CCCC1` [Compound 13], the IC50 is under 1000 nM.

On to `O=C(c1cc(NCc2ccccc2)nc2ccccc12)N1CCC[C@H]1CN1CCCC1` [Compound 14], for which the IC50 was over 10000 nM.

Turning to `COc1ccc(Nc2cc(C(=O)N3CCC[C@H]3CN3CCCC3)c3cc(-c4ccc5c(c4)OCO5)ccc3n2)cc1` [Compound 15], the IC50 is under 1000 nM.

Consider `O=C(c1cc(Nc2ccc(F)cc2)nc2ccc(-c3ccc4c(c3)OCO4)cc12)N1CCC[C@H]1CN1CCCC1` [Compound 16], for which the half-inhibitory concentration (IC50) was under 1000 nM.

On to `COc1cccc(Nc2cc(C(=O)N3CCC[C@H]3CN3CCCC3)c3cc(-c4ccc5c(c4)OCO5)ccc3n2)c1` [Compound 17], for which the IC50 is under 1000 nM.

`O=C(c1cc(Nc2cccc(Br)c2)nc2ccc(-c3ccc4c(c3)OCO4)cc12)N1CCC[C@H]1CN1CCCC1` [Compound 18]: the IC50 is under 1000 nM.

In the case of `O=C(c1cc(Nc2ccccn2)nc2ccc(-c3ccc4c(c3)OCO4)cc12)N1CCC[C@H]1CN1CCCC1` [Compound 19], the concentration for half-maximal inhibition (IC50) was under 1000 nM.

In the case of `CN(C)C[C@@H]1CCCN1C(=O)c1cc(N(C)C)nc2ccc(-c3ccc4c(c3)OCO4)cc12` [Compound 20], the IC50 was over 10000 nM.

Regarding `O=C(c1cc(NCc2ccccc2)nc2ccc(-c3ccc4c(c3)OCO4)cc12)N1CCC[C@H]1CNCc1ccccc1` [Compound 21], the IC50 was over 10000 nM.

Regarding `O=C(c1cc(Oc2ccccc2)nc2ccc(-c3ccc4c(c3)OCO4)cc12)N1CCC[C@H]1CN1CCCC1` [Compound 22], the IC50 is under 1000 nM.

`O=C(c1cc(OCc2ccccc2)nc2ccc(-c3ccc4c(c3)OCO4)cc12)N1CCC[C@H]1CN1CCCC1` [Compound 23]: the IC50 is under 1000 nM.

Regarding `O=C(c1cc(NC2CCCCC2)nc2ccc(-c3ccc4c(c3)OCO4)cc12)N1CCC[C@H]1CN1CCCC1` [Compound 24], the IC50 is under 1000 nM.

Regarding `O=C(c1cc(Cc2ccccc2)nc2ccc(-c3ccc4c(c3)OCO4)cc12)N1CCC[C@H]1CN1CCCC1` [Compound 25], the IC50 was under 1000 nM.

For `O=C(c1cc(NCCN2CCOCC2)nc2ccc(-c3ccc4c(c3)OCO4)cc12)N1CCC[C@H]1CN1CCCC1` [Compound 26], the IC50 was over 10000 nM.

With `O=C(c1cc(NCC2CCCCC2)nc2ccc(-c3ccc4c(c3)OCO4)cc12)N1CCC[C@H]1CN1CCCC1` [Compound 27], the IC50 is under 1000 nM.

As to `O=C(c1cc(NC2CCCC2)nc2ccc(-c3ccc4c(c3)OCO4)cc12)N1CCC[C@H]1CN1CCCC1` [Compound 28], the IC50 is over 10000 nM.

Regarding `O=C(c1cc(NC2Cc3ccccc3C2)nc2ccc(-c3ccc4c(c3)OCO4)cc12)N1CCC[C@H]1CN1CCCC1` [Compound 29], the IC50 fell in the range of 1000 to 10000 nM.

Take `O=C(c1cc(NCc2ccc(F)cc2)nc2ccc(-c3ccc4c(c3)OCO4)cc12)N1CCC[C@H]1CN1CCCC1` [Compound 30]: the IC50 is under 1000 nM.

Consider `O=C(c1cc(NCc2cccc(F)c2)nc2ccc(-c3ccc4c(c3)OCO4)cc12)N1CCC[C@H]1CN1CCCC1` [Compound 31], for which the IC50 was under 1000 nM.

For the molecule `O=C(c1cc(NCCN2CCCCC2)nc2ccc(-c3ccc4c(c3)OCO4)cc12)N1CCC[C@H]1CN1CCCC1` [Compound 32], the IC50 is over 10000 nM.

Turning to `O=C(c1cc(NCc2ccccn2)nc2ccc(-c3ccc4c(c3)OCO4)cc12)N1CCC[C@H]1CN1CCCC1` [Compound 33], the IC50 was in the range of 1000 to 10000 nM.

For `O=C(c1cc(NCc2cccnc2)nc2ccc(-c3ccc4c(c3)OCO4)cc12)N1CCC[C@H]1CN1CCCC1` [Compound 34], the IC50 was 1000 to 10000 nM.

`O=C(c1cc(NCc2ccc(Cl)cc2)nc2ccc(-c3ccc4c(c3)OCO4)cc12)N1CCC[C@H]1CN1CCCC1` [Compound 35]: the IC50 is under 1000 nM.

Turning to `O=C(c1cc(NCc2ccccc2Cl)nc2ccc(-c3ccc4c(c3)OCO4)cc12)N1CCC[C@H]1CN1CCCC1` [Compound 36], the IC50 is under 1000 nM.

As to `O=C(c1cc(NCCc2ccccc2)nc2ccc(-c3ccc4c(c3)OCO4)cc12)N1CCC[C@H]1CN1CCCC1` [Compound 37], the IC50 was under 1000 nM.

With `O=C(c1cc(NCc2ccncc2)nc2ccc(-c3ccc4c(c3)OCO4)cc12)N1CCC[C@H]1CN1CCCC1` [Compound 38], the IC50 is 1000 to 10000 nM.

On to `O=C(c1cc(NC2CCC2)nc2ccc(-c3ccc4c(c3)OCO4)cc12)N1CCC[C@H]1CN1CCCC1` [Compound 39], for which the IC50 was in the range of 1000 to 10000 nM.

In the case of `O=C(c1cc(NCc2ccc(F)c(Cl)c2)nc2ccc(-c3ccc4c(c3)OCO4)cc12)N1CCC[C@H]1CN1CCCC1` [Compound 40], the IC50 was under 1000 nM.

Turning to `O=C(c1cc(N[C@H]2CCc3ccccc32)nc2ccc(-c3ccc4c(c3)OCO4)cc12)N1CCC[C@H]1CN1CCCC1` [Compound 41], the IC50 was under 1000 nM.

As to `O=C(c1cc(N[C@@H]2CCc3ccccc32)nc2ccc(-c3ccc4c(c3)OCO4)cc12)N1CCC[C@H]1CN1CCCC1` [Compound 42], the IC50 was 1000 to 10000 nM.

Turning to `CCC(Nc1cc(C(=O)N2CCC[C@H]2CN2CCCC2)c2cc(-c3ccc4c(c3)OCO4)ccc2n1)c1ccccc1` (some centres unmarked) [Compound 43], the half-maximal inhibitory concentration (IC50) is under 1000 nM.

Regarding `O=C(c1cc(NCc2ccc(C(F)(F)F)cc2)nc2ccc(-c3ccc4c(c3)OCO4)cc12)N1CCC[C@H]1CN1CCCC1` [Compound 44], the IC50 was under 1000 nM.

Regarding `O=C(c1cc(NCCc2ccc(Cl)cc2Cl)nc2ccc(-c3ccc4c(c3)OCO4)cc12)N1CCC[C@H]1CN1CCCC1` [Compound 45], the IC50 is under 1000 nM.

Take `O=C(c1cc(NCc2ccc(F)cc2F)nc2ccc(-c3ccc4c(c3)OCO4)cc12)N1CCC[C@H]1CN1CCCC1` [Compound 46]: the IC50 was under 1000 nM.

Take `C[C@@H](O)CNc1cc(C(=O)N2CCC[C@H]2CN2CCCC2)c2cc(-c3ccc4c(c3)OCO4)ccc2n1` [Compound 47]: the IC50 was 1000 to 10000 nM.

As to `O=C(c1cc(N[C@@H]2c3ccccc3C[C@@H]2O)nc2ccc(-c3ccc4c(c3)OCO4)cc12)N1CCC[C@H]1CN1CCCC1` [Compound 48], the IC50 lay within 1000 to 10000 nM.

As to `O=C(c1cc(NCCc2c[nH]cn2)nc2ccc(-c3ccc4c(c3)OCO4)cc12)N1CCC[C@H]1CN1CCCC1` [Compound 49], the half-maximal inhibitory concentration (IC50) lay within 1000 to 10000 nM.

Consider `O=C(c1cc(NCc2cccs2)nc2ccc(-c3ccc4c(c3)OCO4)cc12)N1CCC[C@H]1CN1CCCC1` [Compound 50], for which the IC50 is under 1000 nM.

`O=C(c1cc(Nc2ccc(Oc3ccccc3)cc2)nc2ccc(-c3ccc4c(c3)OCO4)cc12)N1CCC[C@H]1CN1CCCC1` [Compound 51]: the IC50 is under 1000 nM.

In the case of `O=C(c1cc(Nc2ccc(Cl)cc2)nc2ccc(-c3ccc4c(c3)OCO4)cc12)N1CCC[C@H]1CN1CCCC1` [Compound 52], the IC50 is under 1000 nM.

Regarding `O=C(c1cc(Nc2ccc3c(c2)OCO3)nc2ccc(-c3ccc4c(c3)OCO4)cc12)N1CCC[C@H]1CN1CCCC1` [Compound 53], the IC50 is under 1000 nM.
